# Experimental data from US20040009599A1, “Antisense modulation of cellular inhibitor of apoptosis-1 expression” (priority 1998, published 2004).
# Strand notation (5' to 3'): a small letter for the sugar, then the base; units joined by * are phosphorothioate-linked, units joined directly phosphodiester-linked; [ ] holds rarer units or linkages, { } end groups; capitals alone tell only the bases. d = 2'-deoxy (DNA)
# System: human Cellular Inhibitor of Apoptosis-1 RNA
# Test: Inhibition of Cellular Inhibitor of Apoptosis-1 mRNA levels by quantitative real-time PCR after oligonucleotide treatment of cells
# Format: cell-based
# Settings: phosphorothioate oligodeoxynucleotides; oligonucleotide at final concentration of 150 nM with LIPOFECTIN; real-time PCR; averages from three experiments
# Description: Cells were harvested 16 hours after oligonucleotide treatment.
# Poly(A)+ mRNA was isolated according to Miura et al., Clin. Chem., 1996, 42, 1758-1764. Other methods for poly(A)+ mRNA isolation are taught in, for example, Ausubel, F. M. et al., Current Protocols in Molecular Biology, Volume 1, pp. 4.5.1-4.5.3, John Wiley & Sons, Inc., 1993. […] 60 μL lysis buffer (10 mM Tris-HCl, pH 7.6, 1 mM EDTA, 0.5 M NaCl, 0.5% NP-40, 20 mM vanadyl-ribonucleoside complex) was added to each well, the plate was gently agitated and then incubated at room temperature for five minutes. 55 μL of lysate was transferred to Oligo d(T) coated 96-well plates (AGCT Inc., Irvine Calif.). Plates were incubated for 60 minutes at room temperature, washed 3 times with 200 μL of wash buffer (10 mM Tris-HCl pH 7.6, 1 mM EDTA, 0.3 M NaCl). After the final wash, the plate was blotted on paper towels to remove excess wash buffer and then air-dried for 5 minutes. 60 μL of elution buffer (5 mM Tris-HCl pH 7.6), preheated to 70° C. was added to each well, the plate was incubated on a 90° C. hot plate for 5 minutes, and the eluate was then transferred to a fresh 96-well plate.
# Cellular Inhibitor of Apoptosis-1 probes and primers were designed to hybridize to the human Cellular Inhibitor of Apoptosis-1 sequence, using published sequence information (GenBank accession number U37547, incorporated herein as SEQ ID NO:1).
# For Cellular Inhibitor of Apoptosis-1 the PCR primers were: […]
# Target sites are indicated by nucleotide numbers, as given in the sequence source reference (Genbank accession no. U37547), to which the oligonucleotide binds. All compounds in Table 1 are oligodeoxynucleotides with phosphorothioate backbones (internucleoside linkages) throughout. […] Data are averages from three experiments. If present, “N.D.” indicates “no data”.
row,Substance,% Inhibition of Cellular Inhibitor of Apoptosis-1 mRNA levels
1,"ISIS 23357: phosphorothioate oligodeoxynucleotide tggtaggtaagaaatctg, Coding target site 1717 (antisense dT*dG*dG*dT*dA*dG*dG*dT*dA*dA*dG*dA*dA*dA*dT*dC*dT*dG)",0%
2,"ISIS 23358: phosphorothioate oligodeoxynucleotide ttcccagttactgagctt, Coding target site 1835 (antisense dT*dT*dC*dC*dC*dA*dG*dT*dT*dA*dC*dT*dG*dA*dG*dC*dT*dT)",78%
3,"ISIS 23359: phosphorothioate oligodeoxynucleotide ctcagatttgaaatgcta, Coding target site 1936 (antisense dC*dT*dC*dA*dG*dA*dT*dT*dT*dG*dA*dA*dA*dT*dG*dC*dT*dA)",0%
4,"ISIS 23360: phosphorothioate oligodeoxynucleotide ttcccaacacctcaagcc, Coding target site 2093 (antisense dT*dT*dC*dC*dC*dA*dA*dC*dA*dC*dC*dT*dC*dA*dA*dG*dC*dC)",55%
5,"ISIS 23361: phosphorothioate oligodeoxynucleotide taccttgaatctcatcaa, Coding target site 2193 (antisense dT*dA*dC*dC*dT*dT*dG*dA*dA*dT*dC*dT*dC*dA*dT*dC*dA*dA)",0%
6,"ISIS 23362: phosphorothioate oligodeoxynucleotide ataattggtgggtcagca, Coding target site 2269 (antisense dA*dT*dA*dA*dT*dT*dG*dG*dT*dG*dG*dG*dT*dC*dA*dG*dC*dA)",0%
7,"ISIS 23363: phosphorothioate oligodeoxynucleotide ttttactttgaactgttt, Coding target site 2391 (antisense dT*dT*dT*dT*dA*dC*dT*dT*dT*dG*dA*dA*dC*dT*dG*dT*dT*dT)",0%
8,"ISIS 23364: phosphorothioate oligodeoxynucleotide catttcttcagcttgttt, Coding target site 2501 (antisense dC*dA*dT*dT*dT*dC*dT*dT*dC*dA*dG*dC*dT*dT*dG*dT*dT*dT)",0%
9,"ISIS 23365: phosphorothioate oligodeoxynucleotide tcgcttgtaaaggtatct, Coding target site 2661 (antisense dT*dC*dG*dC*dT*dT*dG*dT*dA*dA*dA*dG*dG*dT*dA*dT*dC*dT)",0%
10,"ISIS 23366: phosphorothioate oligodeoxynucleotide attcttatccacaaataa, Coding target site 2774 (antisense dA*dT*dT*dC*dT*dT*dA*dT*dC*dC*dA*dC*dA*dA*dA*dT*dA*dA)",0%
11,"ISIS 23367: phosphorothioate oligodeoxynucleotide gaccacaaggaataaata, Coding target site 2904 (antisense dG*dA*dC*dC*dA*dC*dA*dA*dG*dG*dA*dA*dT*dA*dA*dA*dT*dA)",0%
12,"ISIS 23368: phosphorothioate oligodeoxynucleotide ttagatggcttcaagtgt, 3′ UTR target site 3071 (antisense dT*dT*dA*dG*dA*dT*dG*dG*dC*dT*dT*dC*dA*dA*dG*dT*dG*dT)",10%
13,"ISIS 23369: phosphorothioate oligodeoxynucleotide atatagttcaccaaacat, 3′ UTR target site 3222 (antisense dA*dT*dA*dT*dA*dG*dT*dT*dC*dA*dC*dC*dA*dA*dA*dC*dA*dT)",0%
14,"ISIS 23370: phosphorothioate oligodeoxynucleotide ttcctggtttccagttct, 3′ UTR target site 3355 (antisense dT*dT*dC*dC*dT*dG*dG*dT*dT*dT*dC*dC*dA*dG*dT*dT*dC*dT)",46%
15,"ISIS 23371: phosphorothioate oligodeoxynucleotide agtgaaaagcaccaaaga, 3′ UTR target site 3407 (antisense dA*dG*dT*dG*dA*dA*dA*dA*dG*dC*dA*dC*dC*dA*dA*dA*dG*dA)",0%

# Same assay, conditions: summary of Table 1; real-time PCR of mRNA levels
row,Substance,inhibition of Cellular Inhibitor of Apoptosis-1 expression
1,"ISIS 23358: phosphorothioate oligodeoxynucleotide ttcccagttactgagctt, Coding target site 1835 (antisense dT*dT*dC*dC*dC*dA*dG*dT*dT*dA*dC*dT*dG*dA*dG*dC*dT*dT)",at least 20%
2,"ISIS 23360: phosphorothioate oligodeoxynucleotide ttcccaacacctcaagcc, Coding target site 2093 (antisense dT*dT*dC*dC*dC*dA*dA*dC*dA*dC*dC*dT*dC*dA*dA*dG*dC*dC)",at least 20%
3,"ISIS 23370: phosphorothioate oligodeoxynucleotide ttcctggtttccagttct, 3′ UTR target site 3355 (antisense dT*dT*dC*dC*dT*dG*dG*dT*dT*dT*dC*dC*dA*dG*dT*dT*dC*dT)",at least 20%
